The source of these data is US20130053381A1, “2,4-DIOXO-1,4-DIHYDRO-2H-QUINAZOLIN-3-YL-SULFONAMIDE DERIVATIVES” (NOVARTIS AG, priority 2010, published 2013).

One test relates to OF1 mice. Kind of test: Maximal electroshock test (MES Test). In kind it is in vivo. Conditions: Mus musculus, po; 50 mg/kg, p.o., pre-treatment time −0.5 h (footnote d); read-out: %-Protection. Here is the method: Compounds of the invention were tested in OF1 mice using the maximal electroshock test (MES Test) described in detail by Schmutz et al., Naunyn-Schmiedeberg's Arch Pharmacol 1990, 342, 61-66. Briefly, generalized tonic-clonic convulsions of the hind extremities were induced by passing electrical current through temporal electrodes (50 Hz, 18 mA, 0.2s). […] 30 mg/kg carbamazepine was used as a positive control; mice were classified as protected by a compound If the duration of the seizure lasted only 3 second or less. Five mice were used for each treatment condition and the percentage of protected mice was used as readout (i.e. a compound could give 0%, 20%, 40%, 60%, 80% or 100% protection). Usually, compounds of the invention or their parents were given at a dose of 50 mg/kg, p.o., 1 hour prior to induction of convulsions (i.e. “pre-treatment time −1 h”).
ED50 values (ED: effective dose) were calculated using GraphPad Prism, v4.02. after shock administration, mouse blood was collected for determination of compounds' blood exposure.
(In general: Protection in the maximal electroshock model is a classic sign of anticonvulsant action.)
On to `CCC(=O)N(n1c(=O)[nH]c2cc(C(F)(F)F)c([C@H]3CCCO3)cc2c1=O)S(C)(=O)=O` [Example 10.02, N—((R)-2,4-Dioxo-6-tetrahydro-furan-2-yl-7-trifluoromethyl-1,4-dihydro-2H-quinazolin-3-yl)-N-propionyl-methanesulfonamide], for which the responders at 50 mg/kg was determined as 60%.
Regarding `CC(=O)N(n1c(=O)[nH]c2cc(C(F)(F)F)c([C@H]3CCCO3)cc2c1=O)S(C)(=O)=O` [Example 10.01, N-Acetyl-N—((R)-2,4-dioxo-6-tetrahydro-furan-2-yl-7-trifluoromethyl-1,4-dihydro-2H-quinazolin-3-yl)-methanesulfonamide], the responders at 50 mg/kg was determined as 40%.

The test is the same for the next values; noted with them: Mus musculus, po; 50 mg/kg, p.o., pre-treatment time −1 h; read-out: %-Protection.
Take `CCC(=O)N(n1c(=O)[nH]c2cc(C(F)(F)F)c([C@H]3CCCO3)cc2c1=O)S(C)(=O)=O` [Example 10.02, N—((R)-2,4-Dioxo-6-tetrahydro-furan-2-yl-7-trifluoromethyl-1,4-dihydro-2H-quinazolin-3-yl)-N-propionyl-methanesulfonamide]: the responders at 50 mg/kg was 60%.
Same read-out and setting: the result for `CCc1cc2[nH]c(=O)n(N(C(=O)OC)S(C)(=O)=O)c(=O)c2cc1-c1ccnn1C` [Example 2.07, Methanesulfonyl-[7-ethyl-6-(2-methyl-2H-pyrazol-3-yl)-2,4-dioxo-1,4-dihydro-2H-quinazolin-3-yl]-carbamic acid methyl ester] reads 100%.
Same read-out and setting: to `CCCCCC(=O)N(n1c(=O)[nH]c2cc(C(F)(F)F)c(-c3ccnn3C)cc2c1=O)S(C)(=O)=O` [Example 1.04, N-Hexanoyl-N-[6-(2-methyl-2H-pyrazol-3-yl)-2,4-dioxo-7-trifluoromethyl-1,4-dihydro-2H-quinazolin-3-yl]-methanesulfonamide] belongs 80%; to `CCCCCC(=O)N(n1c(=O)[nH]c2cc(C(F)(F)F)c([C@H]3CCCO3)cc2c1=O)S(C)(=O)=O` [Example 10.09, N—((R)-2,4-Dioxo-6-tetrahydro-furan-2-yl-7-trifluoromethyl-1,4-dihydro-2H-quinazolin-3-yl)-N-hexanoyl-methanesulfonamide], 60%; to `CC(=O)N(n1c(=O)[nH]c2cc(C(F)(F)F)c([C@H]3CCCO3)cc2c1=O)S(C)(=O)=O` [Example 10.01, N-Acetyl-N—((R)-2,4-dioxo-6-tetrahydro-furan-2-yl-7-trifluoromethyl-1,4-dihydro-2H-quinazolin-3-yl)-methanesulfonamide], 80%.
The same measure, in the same setting: to `CC(=O)OCC(=O)N(n1c(=O)[nH]c2cc(C(C)C)c(-c3ccnn3C)cc2c1=O)S(C)(=O)=O` [Example 3.17, Acetic acid 2-{[7-isopropyl-6-(2-methyl-2H-pyrazol-3-yl)-2,4-dioxo-1,4-dihydro-2H-quinazolin-3-yl]-methanesulfonyl-amino}-2-oxo-ethyl ester] belongs 100%.
In the case of `COCCOC(=O)N(n1c(=O)[nH]c2cc(C(F)(F)F)c(-c3ccnn3C(C)C)cc2c1=O)S(C)(=O)=O` [Example 5.10, [6-(2-Isopropyl-2H-pyrazol-3-yl)-2,4-dioxo-7-trifluoromethyl-1,4-dihydro-2H-quinazolin-3-yl]-methanesulfonyl-carbamic acid 2-methoxy-ethyl ester], the responders at 50 mg/kg was determined as 20%.
On the same count and under the same terms, to `CCCCOC(=O)N(n1c(=O)[nH]c2cc(C(F)(F)F)c(-c3ccnn3C(C)C)cc2c1=O)S(C)(=O)=O` [Example 5.08, [6-(2-Isopropyl-2H-pyrazol-3-yl)-2,4-dioxo-7-trifluoromethyl-1,4-dihydro-2H-quinazolin-3-yl]-methanesulfonyl-carbamic acid butyl ester] belongs 100%; to `CCCCC(=O)N(n1c(=O)[nH]c2cc(C(F)(F)F)c([C@H]3CCCO3)cc2c1=O)S(C)(=O)=O` [Example 10.11, N—((R)-2,4-Dioxo-6-tetrahydro-furan-2-yl-7-trifluoromethyl-1,4-dihydro-2H-quinazolin-3-yl)-N-pentanoyl-methanesulfonamide], 20%; to `CCC(O)c1cc2c(=O)n(N(C(=O)OCCOC)S(C)(=O)=O)c(=O)[nH]c2cc1C(F)(F)F` (stereo not shown) [Example 12.02, Methanesulfonyl-[6-(1-hydroxy-propyl)-2,4-dioxo-7-trifluoromethyl-1,4-dihydro-2H-quinazolin-3-yl]-carbamic acid 2-methoxy-ethyl ester], 20%.
In the case of `CCCCCC(=O)N(n1c(=O)[nH]c2cc(CC)c(-c3ccnn3CC)cc2c1=O)S(C)(=O)=O` [Example 13.02, N-[7-Ethyl-6-(2-ethyl-2H-pyrazol-3-yl)-2,4-dioxo-1,4-dihydro-2H-quinazolin-3-yl]-N-hexanoyl-methanesulfonamide], the responders at 50 mg/kg was determined as 20%.
Same read-out and setting: to `CSCCC(=O)N(n1c(=O)[nH]c2cc(C(C)C)c(-c3ccnn3C)cc2c1=O)S(C)(=O)=O` [Example 3.18, N-[7-Isopropyl-6-(2-methyl-2H-pyrazol-3-yl)-2,4-dioxo-1,4-dihydro-2H-quinazolin-3-yl]-N-(3-methylsulfanyl-propionyl)-methanesulfonamide] belongs 100%.
Same read-out and setting: the result for `CCC(OC)c1cc2c(=O)n(N(C(=O)OC)S(C)(=O)=O)c(=O)[nH]c2cc1C(F)(F)F` (stereo not shown) [Example 11.09, Methanesulfonyl-[6-(1-methoxy-propyl)-2,4-dioxo-7-trifluoromethyl-1,4-dihydro-2H-quinazolin-3-yl]-carbamic acid methyl ester] reads 80%; that for `CCC(OC)c1cc2c(=O)n(N(C(C)=O)S(C)(=O)=O)c(=O)[nH]c2cc1C(F)(F)F` (stereo not shown) [Example 11.08, N-Acetyl-N-[6-(1-methoxy-propyl)-2,4-dioxo-7-trifluoromethyl-1,4-dihydro-2H-quinazolin-3-yl]-methanesulfonamide], 80%; that for `CC(C)c1cc2[nH]c(=O)n(N(C(=O)CCCN3CCOCC3)S(C)(=O)=O)c(=O)c2cc1-c1ccnn1C` [Example 3.37, N-[7-Isopropyl-6-(2-methyl-2H-pyrazol-3-yl)-2,4-dioxo-1,4-dihydro-2H-quinazolin-3-yl]-N-(4-morpholin-4-yl-butyryl)-methanesulfonamide], 100%.
Still for that read-out and setting: to `CCC(OC)c1cc2c(=O)n(N(C(=O)OCC(C)C)S(C)(=O)=O)c(=O)[nH]c2cc1C(F)(F)F` (stereo not shown) [Example 11.10, Methanesulfonyl-[6-(1-methoxy-propyl)-2,4-dioxo-7-trifluoromethyl-1,4-dihydro-2H-quinazolin-3-yl]-carbamic acid isobutyl ester] belongs 100%; to `CC(C)C(=O)N(n1c(=O)[nH]c2cc(C(F)(F)F)c(-c3ccnn3C(C)C)cc2c1=O)S(C)(=O)=O` [Example 5.05, N-Isobutyryl-N-[6-(2-isopropyl-2H-pyrazol-3-yl)-2,4-dioxo-7-trifluoromethyl-1,4-dihydro-2H-quinazolin-3-yl]-methanesulfonamide], 60%; to `CCCOC(=O)N(n1c(=O)c2cc(-c3ccnn3C)c(C(C)C)cc2n(C(=O)OCCC)c1=O)S(C)(=O)=O` [Example 3.34, 7-Isopropyl-3-(methanesulfonyl-propoxycarbonyl-amino)-6-(2-methyl-2H-pyrazol-3-yl)-2,4-dioxo-3,4-dihydro-2H-quinazoline-1-carboxylic acid propyl ester], 80%.

Staying with this test, now noted: Mus musculus, po; Dose: 15 mg/kg, p.o. (footnote c), pre-treatment time −1 h; read-out: %-Protection.
`CCCCC(=O)N(n1c(=O)[nH]c2cc(C(C)C)c(-c3ccnn3C)cc2c1=O)S(C)(=O)=O` [Example 3.09, N-[7-Isopropyl-6-(2-methyl-2H-pyrazol-3-yl)-2,4-dioxo-1,4-dihydro-2H-quinazolin-3-yl]-N-pentanoyl-methanesulfonamide]: the responders at 15 mg/kg amounted to 100%.

The test is the same for the next values; noted with them: Mus musculus; dose of up to 50 mg/kg, p.o., 1 hour prior to induction of convulsions; read-out: %-Protection.
For the molecule `CC(C)C(=O)N(n1c(=O)[nH]c2cc(C(F)F)c(-c3ccnn3C(C)C)cc2c1=O)S(C)(=O)=O` [N-[7-Difluoromethyl-6-(2-isopropyl-2H-pyrazol-3-yl)-2,4-dioxo-1,4-dihydro-2H-quinazolin-3-yl]-N-isobutyryl-methanesulfonamide], the responders at 50 mg/kg was 0%.
Same read-out and setting: the result for `CCCCC(=O)N(n1c(=O)[nH]c2cc(C(F)(F)F)c(-c3ccnn3CC)cc2c1=O)S(C)(=O)=O` [N-[6-(2-Ethyl-2H-pyrazol-3-yl)-2,4-dioxo-7-trifluoromethyl-1,4-dihydro-2H-quinazolin-3-yl]-N-pentanoyl-methanesulfonamide] reads 0%; that for `CCC(=O)N(n1c(=O)[nH]c2cc(C(F)F)c(-c3ccnn3CC)cc2c1=O)S(C)(=O)=O` [N-[7-Difluoromethyl-6-(2-ethyl-2H-pyrazol-3-yl)-2,4-dioxo-1,4-dihydro-2H-quinazolin-3-yl]-N-propionyl-methanesulfonamide], 0%.
In the case of `CCn1nccc1-c1cc2c(=O)n(N(C(=O)CCSC)S(C)(=O)=O)c(=O)[nH]c2cc1C(F)(F)F` [N-[6-(2-Ethyl-2H-pyrazol-3-yl)-2,4-dioxo-7-trifluoromethyl-1,4-dihydro-2H-quinazolin-3-yl]-N-(3-methylsulfanyl-propionyl)-methanesulfonamide], the responders at 50 mg/kg was 0%.
Regarding `CCc1cc2[nH]c(=O)n(N(C(=O)OCCOC)S(C)(=O)=O)c(=O)c2cc1-c1ccnn1CC` [Methanesulfonyl-[7-ethyl-6-(2-ethyl-2H-pyrazol-3-yl)-2,4-dioxo-1,4-dihydro-2H-quinazolin-3-yl]carbamic acid 2-methoxy-ethyl ester], the responders at 50 mg/kg was found to be 0%.
The same measure, in the same setting: to `CCCCC(=O)N(n1c(=O)[nH]c2cc(C(F)F)c(-c3ccnn3CC)cc2c1=O)S(C)(=O)=O` [N-[7-Difluoromethyl-6-(2-ethyl-2H-pyrazol-3-yl)-2,4-dioxo-1,4-dihydro-2H-quinazolin-3-yl]-N-pentanoyl-methanesulfonamide] belongs 0%.
Still for that read-out and setting: to `CCCCCC(=O)N(n1c(=O)[nH]c2cc(C(F)F)c(-c3ccnn3C(C)C)cc2c1=O)S(C)(=O)=O` [N-[7-Difluoromethyl-6-(2-isopropyl-2H-pyrazol-3-yl)-2,4-dioxo-1,4-dihydro-2H-quinazolin-3-yl]-N-hexanoyl-methanesulfonamide] belongs 0%.
